Experimental findings from patent publication US20260125388A1 (priority 2022, published 2026) are described below.

Values after ≈ are worked out from the molar mass of the structure shown. Like-named read-outs stand apart in the source and are kept apart here.

One data set deals with HEK293 cells. Briefly: Cytotoxicity, CellTiter-Glo cell viability assay. The class given is cell-based, human. The following applies: for Cytotoxicity LD50: HEK293 cells, CellTiter-Glo, Table 3; for LD50 HEK293: human kidney cells, Table 2. On the procedure:
Compounds with increased cytotoxicity can be identified using an in vitro cytotoxicity assay. Therefore, human embryonic kidney 293T (HEK293T) cell lines were purchased (ATCC) and cultured in 75 cm2 flasks (CellStar). Cells were grown in DMEM/High Glucose (Hyclone, #SH3024301) media to which non-essential amino acids (Hyclone, #SH30238.01), 10 mM HEPES (Hyclone, #SH302237.01), 5×106 units of penicillin and streptomycin (Hyclone, #SV30010), and 10% of heat inactivated fetal bovine serum (Gibco, #10082147) were added. Cells were harvested using 0.05% Trypsin (Hyclone, #SH3023601). The cell viability assay was evaluated using CellTiter-Glo™ Luminescent Cell Viability Assay Kit (Promega, Madison, WI), which contains luciferase and all its substrate except ATP. The controls for the cytotoxicity assay used were (E)-10-(bromotriphenylphosphoranyl)decyl 4-(4-(tert-butyl)phenyl)-4-oxobut-2-enoate (400 μM in DMSO, positive control) and DMSO (negative control). All luminescence readings were performed on a Tecan Infinite M1000 plate reader. Small volume transfers were performed on the Tecan Freedom EVO liquid handling system with a 100 nL pin tool transfer (V&P Scientific). Serial dilutions were done in 96-well polypropylene plates (Coming, #3365) and assays were conducted in 384-well white optical bottom plates. The assays were carried out in quadruplet in three independent runs. The data were normalized to the controls and if possible analyzed by nonlinear regression (GraphPad Prism).
For orientation: Cellular ATP, detected with luciferase, serves as a proxy for viable cell number.

Data set [1] is described as follows: Aqueous solubility, shake flask in PBS buffer. The class given is physicochemical. Conditions: for solubility at 24 h: PBS buffer, aqueous buffer, thermodynamic from solid. On the procedure:
5-50 mg of compound was added to 500 μL of PBS buffer at pH 7.4. The pH was adjusted if necessary, using a 1M NaOH solution. The solutions were vortexed for 10 s, sonicated for 2 min and agitated with a horizontal shaker in a closed vial for 24 h. The mixtures were transferred to an Eppendorf tube and centrifuged for 5 min at 16000×g followed by filtration through […] cellulose acetate spin X centrifuge filter (Costar). 200 μL of filtrate was transferred to a new Eppendorf tube and 200 μL of methanol was added and then subsequent dilution was made in 50:50 methanol/PBS buffer water if necessary. After mixing, 50 μL were transferred into a 384 well plate (Coring UV star, 781801) for UV detection at 250-600 nm (Tecan M1000). The assay was carried out with three independent samples of each compound. The concentration of each solution was determined with a calibration curve in 50:50 methanol/PBS buffer water. Absorbance of corresponding methanol PBS blank were recorded and subtracted from the absorbance of calibration curve solutions and from the samples.

In another data set the test system is GABAA receptor. In words: GABAA receptor binding, competition assay with [3H]-flunitrazepam and rat brain membranes. Conditions: for GABAAR binding, % inhibition at 10 μM: Table 3.
The nature of another data set: in vitro. Conditions: PAMPA, pH 7.4. For orientation: In PAMPA a lipid-coated filter parts donor from acceptor wells.
For data set [2] the following is noted: parallel artificial membrane permeation assay at pH 7.4.
Description: (§1) The artificial membrane was prepared by carefully pipetting 15 μL of the 5% (v/v) hexadecane in hexane solution to each of the wells of the donor plate. The plate was placed into a fume hood for 1 h to ensure complete evaporation of the hexane. After the hexane had evaporated, 300 μL of PBS with 5% (v/v) DMSO was added to each of the wells of the acceptor plate. The hexadecane treated donor plate was then placed on top of the acceptor plate taking care that the underside of the membrane is completely in contact with the solution in each of the acceptor wells. […] The lid was placed on the plates and the entire plate sandwich was placed into a closed humid environment. The container was then placed on a reciprocal shaker for agitation at about 100 rpm. The time at the beginning of the incubation was recorded, as this is a thermodynamic-based assay. The incubation was then allowed to continue for 18 h. The donor plate was removed and 50 μL of the acceptor solution was transferred to the UV plate. Drug solutions at the theoretical equilibrium concentration (100 μM) was also prepared and transferred to the UV plate. The absorbance of the solutions in the UV plate was then scanned from 250-600 nm with 1 nm steps and a 5 nm bandwidth. Log Pe was calculated as follows (Equation 1).
Data set [3] relates to C57/BL6 mice challenged with MC903. In words: Acute treatment in the MC903 mouse model, scratch count. The class given is in vivo. The following applies: single oral gavage on day 19; recording from 40 min after dose; oclacitinib 45 mg/kg, PI-301 100 mg/kg; p<0.05 vs vehicle. The procedure: In another study, the acute treatment effects of oclacitinib (a JAK inhibitor approved for veterinary use) and PI-301 were studied in the MC903 model using C57/BL6 mice. As described previously, MC903 was applied topically on both sides of both ears (1 nmol). On day 19 of the study (D1), drugs or vehicle were administered to individual treatment groups by oral gavage: oclacitinib (45 mg/kg) or PI-301 (100 mg/kg). Mice were video recorded for 60 minutes beginning 40 minutes after drug administration and scratches counted.

Data set [4] deals with C57/BL6 male mice challenged with MC903. In words: Mouse atopic dermatitis model, MC903 challenge, twice daily oral dosing. The format is in vivo. The source says:
An established mouse model of atopic dermatitis (AD) was used to evaluate the efficacy of PI-301 ((R)-8-bromo-6-(2-fluorophenyl)-4-methyl-4H-benzo[f]-imidazo[1,5-a][1,4]diazepine-3-carboxylic acid) in reducing ear thickness, scratching frequency, and inflammatory markers following MC903 challenge (for background on the model see: J Invest Dermatol 138, 2606-2616; Proc Natl Acad Sci USA, 103, 11736-11741; Sci Transl Med, 5, 170ra116; J Invest Dermatol, 138, 1555-1563). The increase of ear thickness is based on the increased diameter of stratum, epidermis, and dermis as determined by standard histological analysis. The thickening of the stratum is based on parakeratosis and hyperkeratosis, the thickening of the epidermis is based on acanthosis and spongiosis and the thickening of the dermis is based on inflammatory infiltration. This reflects increased numbers of neutrophils, mast cells, and, to a lesser extent, eosinophils.
C57/BL6 male mice 8 weeks of age were group housed under a 12 h light/dark cycle. For oral dosing, groups of 8 mice were each given twice daily treatment by voluntary feeding of vehicle (peanut butter) or PI-301 (100 mg/kg in vehicle). Animal weights were recorded daily. Three times per week animals were administered MC903 (1 nmol) on both ears topically. Ear thickness was measured with calipers and photographed.

In data set [5] the test system is IL-6, IL-10, IL-13 and TSLP mRNA in mouse ears. In words: RT-PCR of cytokine mRNA in ears of MC903 challenged mice. The class given is in vivo. Conditions: ear mRNA, vs vehicle. The procedure:
RT-PCR was used to assay the change in cytokines in MC903 challenged animals treated with PI-301. Left mouse ears stored at −20° C. were thawed, rinsed with water and homogenized in 500 μL RLT buffer (Qiagen, 79216). The liquid was added to a QIAshredder (Qiagen, 79654) and centrifuged at 6000 g for 2 min. 350 μL of the supernatant was combined with 350 μL 70% ethanol and mRNA purified with a RNeasy Mini Kit (Qiagen, 74104). mRNA was analyzed using the Accuris qMAX Green One-Step RT-qPCR Kit (Accuris Instruments) along with primers for IL-4, IL-5, IL-6, IL-10, IL-13, INFγ, and TSLP. Data were acquired using an Eppendorf Mastercycler Pro (45° C. 10 min, 95° C. 2 min, [95° C. 30 s, 55° C. 1 min, 72° C. 2 min]×45) and analyzed by the Delta and Delta-Delta Ct method. Each measurement was carried out in triplicate.

[6] abbreviates: 3H-flunitrazepam, rat brain extract.
Where [7] appears, read: read-out: GABAAR binding (IC50), value in brackets, 3H-flunitrazepam, rat brain extract, Table 3, unit inferred.
Where [8] appears, read: [3H]-flunitrazepam, rat brain, Table 1.

Description for GABAA receptor: GABAA receptor binding: Rat brain membranes were prepared from frozen tissue that was thawed on ice and homogenized on ice in 10 volumes of cold lysis buffer (50 mM Tris HCl, pH 7.4, containing protease inhibitor cocktail from Roche) using a Polytron homogenizer (6 pulses and 10 seconds per pulse). The homogenate was centrifuged at 1,000×g for 10 min at 4° C. to obtain the supernatant. The supernatant was then centrifuged at 40,000×g for 20 min, and the resulting supernatant decanted and replaced with the same ice-cold lysis buffer. Two or three additional rounds of homogenization-centrifugation were performed to ensure thorough homogenization and also to wash out endogenous ligands. The final pellet was resuspended in the same buffer and homogenized one last time. […] Total binding and nonspecific binding were determined with reference compound clonazepam. […] Scintillation cocktail is then melted onto the microwave-dried filters on a hot plate and radioactivity counted in a Microbeta counter. The data (n=6) were analyzed by nonlinear regression.
Description for in vitro: as §1

A word on the solubility: it is the concentration that dissolves in the medium under given conditions. For orientation: IC50 means the concentration that inhibits the measured activity by half. As a reminder, the Papp is a coefficient for how fast a substance crosses the barrier. Turning to `C#Cc1ccc2c(c1)C(c1ccccc1F)=NC1(CC1)c1c(C(=O)OCC)ncn1-2` [Compound 18], the “Cytotoxicity LD50” value in the data set on HEK293 cells was >150 µM. In addition, the solubility at 24 h in data set [1] (pH 7.2, read-out: Aqueous solubility) turned out to be 0.053 ± 0.003 mM (≈ 21.2 µg/mL). The “GABAAR binding, % inhibition at 10 μM” value with GABAA receptor (setting [6]) is given as 56%. In addition, the IC50 at GABAA receptor (setting [7]) is 0.509 µM. This compound also showed a Papp in “in vitro” of 251 nm/s.
A word on the % Inhibition: it is the change of the read-out against control, counted positive when it falls. Read a high % Inhibition as a response far below the control. In the case of `O=C(O)c1ncn2c1C1(CCCCC1)N=C(c1ccccc1F)c1cc(Br)ccc1-2` [Compound 29, 8-bromo-6-(2-fluorophenyl)spiro[benzo[f]imidazo[1,5-a][1,4]diazepine-4,1′-cyclohexane]-3-carboxylic acid], in the data set with HEK293 cells, the “Cytotoxicity LD50” value is >300 µM and the “LD50 HEK293” value is >400 µM. The “Aqueous solubility (footnote b: mM)” value in data set [1] (pH 7.2, cells marked b) is given as 46.9 ± 1.3 ^b mM. In addition, the “GABAAR binding, % inhibition at 10 μM” value with GABAA receptor (setting [6]) is listed as 24 (n.d.) %. For the same compound, the “% Inhibition at 10 μM” value in the data set with GABAA receptor (setting [8]) was 1.9%. Besides, the “Permeability (log Pe (cm/s))” value in data set [2] is −6.6 ± 0.10 cm/s.
With `O=C(O)c1ncn2c1C1(CC1)N=C(c1ccccc1F)c1cc(Cl)ccc1-2` [Compound 30, 8-chloro-6-(2-fluorophenyl)spiro[benzo[f]imidazo[1,5-a][1,4]diazepine-4,1′-cyclopropane]-3-carboxylic acid], in the data set with HEK293 cells, the “Cytotoxicity LD50” value is >300 µM and the “LD50 HEK293” value was >400 µM. The “Aqueous solubility (footnote b: mM)” value in data set [1] (pH 7.2, cells marked b) is 36.2 ± 0.4 ^b mM. The “GABAAR binding, % inhibition at 10 μM” value in the data set with GABAA receptor (setting [6]) is 18 (n.d.) %. Also, the “Permeability (log Pe (cm/s))” value in data set [2] was −6.6 ± 0.03 cm/s.
With `O=C(O)c1ncn2c1C1(CC1)N=C(c1ccccc1F)c1ccccc1-2` [Compound 32, 6-(2-fluorophenyl)spiro[benzo[f]imidazo[1,5-a][1,4]diazepine-4,1′-cyclopropane]-3-carboxylic acid], in the data set on HEK293 cells, the “Cytotoxicity LD50” value is >300 µM and the “LD50 HEK293” value is >400 µM. In data set [1] (pH 7.2, cells marked b), the “Aqueous solubility (footnote b: mM)” value is on record as 15.1 ± 0.1 ^b mM. Besides, the “GABAAR binding, % inhibition at 10 μM” value with GABAA receptor (setting [6]) was 74%. On GABAA receptor (setting [7]), the IC50 is 0.289 µM. Further, the “Permeability (log Pe (cm/s))” value in data set [2] is −7.0 ± 0.14 cm/s.
In the case of `CC1(C)N=C(c2ccccc2F)c2cc(Br)ccc2-n2cnc(C(=O)O)c21` [Compound 34, 8-bromo-6-(2-fluorophenyl)-4,4-dimethyl-4H-benzo[f]imidazo[1,5-a][1,4]diazepine-3-carboxylic acid], in the data set on HEK293 cells, the “Cytotoxicity LD50” value is >300 µM and the “LD50 HEK293” value was >400 µM. In data set [1] (pH 7.2, cells marked b, read-out: Aqueous solubility (footnote b: mM)), the solubility at 24 h came out at 4.4 mM (≈ 1880 µg/mL). Further, the “GABAAR binding, % inhibition at 10 μM” value in the data set on GABAA receptor (setting [6]) came to 74%. For the same compound, in the data set on GABAA receptor (setting [8]), the “% Inhibition at 10 μM” value amounted to 74.4% and the IC50 stood at 4.05 µM. Also, the IC50 at GABAA receptor (setting [7]) stood at 4.05 µM. Besides, the “Permeability (log Pe (cm/s))” value in data set [2] is recorded as −7.0 ± 0.22 cm/s.
The Aqueous solubility is the concentration that dissolves in the medium under given conditions. Read a high Aqueous solubility as much dissolved substance. On to `CCC1N=C(c2ccccc2F)c2cc(Br)ccc2NC1=O` (centres unmarked) [Compound 35, 7-bromo-3-ethyl-5-(2-fluorophenyl)-1,3-dihydro-2H-benzo[e][1,4]diazepin-2-one], for which the “Cytotoxicity LD50” value in the data set with HEK293 cells was >150 µM. The “Aqueous solubility” value in data set [1] (pH 7.2) came to 397 ± 31 µM. In the data set on GABAA receptor (setting [6]), the “GABAAR binding, % inhibition at 10 μM” value was found to be 95%. The IC50 on GABAA receptor (setting [7]) came out at 0.134 µM. For the same compound, the Papp in “in vitro” is 20 nm/s.
For the compound `C[C@H]1N=C(c2ccccc2F)c2cc(Br)ccc2-n2cnc(C(=O)O)c21` [PI-301, (R)-8-bromo-6-(2-fluorophenyl)-4-methyl-4H-benzo[f]-imidazo[1,5-a][1,4]diazepine-3-carboxylic acid], in data set [3], the “scratches counted over 60 minutes” value was “significant (p<0.05) reduction in scratches”. In data set [4] (100 mg/kg oral twice daily, days 19 and 22, vs vehicle), the number of scratches result is “significantly reduced”. For the same compound, in data set [4] (100 mg/kg oral twice daily, significant on day 10, vs vehicle), the “increase of ear thickness due to MC903” value is “reduced the increase of ear thickness”. In addition, the “thicknesses of the dermis and epidermis” value in data set [4] (histology of H&E stained ear sections, p<0.005 vs vehicle) was “significant differences”. For the same compound, in data set [5], the IL-6 induction entry was “reduced induction”, the IL-10 induction entry is reported as “reduced induction”, the IL-13 induction result is “reduced induction” and the TSLP induction result was “reduced induction”.
For `CNS(=O)(=O)C[C@H]1CC[C@H](N(C)c2ncnc3[nH]ccc23)CC1` [oclacitinib, reference compound], the “scratches counted over 60 minutes” value in data set [3] was “significant (p<0.05) reduction in scratches”.
